Source: publication PMC6934184, “Selective DNA-PKcs inhibition extends the therapeutic index of localized radiotherapy and chemotherapy” (The Journal of Clinical Investigation, 2019)

Target: T1, TAOK1 (Homo sapiens, UniProt Q7L7X3)
T1 construct: purchased Thermo Fisher Scientific (Life Technologies) SelectScreen
Experiment: SelectScreen LanthaScreen
Type: binding
Details: read-out: % displacement
How it was run: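 SelectScreen broad panel; activity (Z'LYTE, Adapta) plus binding formats. ATP: Km app for CSF1R Z'LYTE; 10 for CAMK1 Adapta. Readout = % per kinase.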

T1 sequence (Q7L7X3 whole entry): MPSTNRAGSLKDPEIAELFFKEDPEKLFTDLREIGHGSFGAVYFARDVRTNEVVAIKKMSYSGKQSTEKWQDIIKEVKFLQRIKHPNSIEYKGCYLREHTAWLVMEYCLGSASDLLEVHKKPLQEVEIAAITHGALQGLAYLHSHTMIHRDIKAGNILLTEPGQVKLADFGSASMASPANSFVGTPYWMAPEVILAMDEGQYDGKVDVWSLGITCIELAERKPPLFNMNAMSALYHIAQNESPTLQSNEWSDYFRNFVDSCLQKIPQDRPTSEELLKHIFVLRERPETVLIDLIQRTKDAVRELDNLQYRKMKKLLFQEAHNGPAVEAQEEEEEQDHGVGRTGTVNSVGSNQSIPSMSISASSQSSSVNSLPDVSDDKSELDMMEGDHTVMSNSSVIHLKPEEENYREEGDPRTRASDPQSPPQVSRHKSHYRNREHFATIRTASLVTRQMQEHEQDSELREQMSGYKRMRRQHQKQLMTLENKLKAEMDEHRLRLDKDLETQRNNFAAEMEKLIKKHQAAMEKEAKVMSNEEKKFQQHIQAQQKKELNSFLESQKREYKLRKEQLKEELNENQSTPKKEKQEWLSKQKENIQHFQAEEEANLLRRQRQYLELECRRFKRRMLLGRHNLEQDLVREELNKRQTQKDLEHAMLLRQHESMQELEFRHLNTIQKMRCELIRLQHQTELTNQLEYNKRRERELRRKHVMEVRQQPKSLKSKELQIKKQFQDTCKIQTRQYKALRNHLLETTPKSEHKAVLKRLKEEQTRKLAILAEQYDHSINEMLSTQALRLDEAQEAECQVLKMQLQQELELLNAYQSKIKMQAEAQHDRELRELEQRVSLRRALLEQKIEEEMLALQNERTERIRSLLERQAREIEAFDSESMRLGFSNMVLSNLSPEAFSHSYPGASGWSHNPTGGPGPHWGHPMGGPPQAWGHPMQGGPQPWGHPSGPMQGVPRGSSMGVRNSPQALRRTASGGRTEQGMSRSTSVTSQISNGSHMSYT

With `CN(C(=O)CN1CCOCC1)c1ccc2sc3c(-c4cccc5c(=O)cc(N6CC7CCC(C6)O7)oc45)cccc3c2c1` [NU5455] the inhibition at 1 µM was 3.7%.
